Laboratory results as given in US9271978B2 (Zenith Epigenetics Corp., priority 2012, dated 2016).

Experiments:
[1] = molecular target: T1, Brd4 bromodomain 1 (BRD4(1)) (Homo sapiens, UniProt O60885); assay: Inhibition of tetra-acetylated histone H4 binding to Brd4 bromodomain 1 (TR-FRET); set-up: key: Active: Compounds with an IC50 value less than 30 μM were deemed to be active.; Not Active: Compounds with an IC50 value less than 30 μM were deemed to be active; conditions: tetra-acetylated histone H4 peptide, active = IC50 <30 μM
T1 construct: Illustrative results with the first bromodomain of Brd4; made in house; host or cells: E. coli BL21 (DE3)
Procedure, shortened: (§1)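 IC50 values come from dose-response curves of the 665 nm to 620 nm TR-FRET signal decrease, measured after 2 h at room temperature. Reactions contained 200 nM E. coli-expressed His-tagged bromodomain, 25-50 nM biotinylated tetra-acetylated H4 peptide, Eu-streptavidin plus XL665 anti-His antibody, with 30 mM HEPES pH 7.4, 320 mM KF and 0.2% DMSO.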

[2] = tested on: ApoA-I mRNA; assay: Up-regulation of hApoA-1 mRNA transcription in Huh7 cells; type: cell-based, human; set-up: key: Active: Compounds with an EC170 value less than 30 μM were deemed to be active; conditions: 48 h treatment, ApoA-I mRNA by real-time PCR, Active = EC170 less than 30 μM
Experimental: In this example, ApoA-I mRNA in tissue culture cells was quantitated to measure the transcriptional up-regulation of ApoA-I when treated with a compound of the present disclosure.
Huh7 cells (2.5×10^5 per well) were plated in a 96-well plate using 100 μL DMEM per well, (Gibco DMEM supplemented with penicillin/streptomycin and 10% FBS), 24 h before the addition of the compound of interest. After 48 h treatment, the spent media was removed from the Huh-7 cells and placed on ice (for immediate use) or at −80° C. (for future use) with the “LDH cytotoxicity assay Kit II” from Abcam. The cells remaining in the plate were rinsed with 100 μL PBS.
Then 85 μL of cell lysis solution was added to each well and incubated for 5-10 min at room temperature, to allow for complete cell lysis and detachment. mRNA was then prepared using the “mRNA Catcher PLUS plate” from Life Technologies, according to the protocol supplied. After the last wash, as much wash buffer as possible was aspirated without allowing the wells to dry. Elution Buffer (E3, 80 μL) was then added to each well. mRNA was then eluted by incubating the mRNA Catcher PLUS plate with Elution Buffer for 5 min at 68° C., and then 1 min at 4° C. Catcher plates with mRNA eluted were kept on ice for use or stored at −80° C.
The eluted mRNA isolated was then used in a one-step real-time PCR reaction, using components of the Ultra Sense Kit together with Life Technologies primer-probe mixes. Real-time PCR data was analyzed, using the Ct values, to determine the fold induction of each unknown sample, relative to the control (that is, relative to the control for each independent DMSO concentration).
Compounds with an EC170 value less than 30 μM were deemed to be active.

[3] = tested on: hIL-6 mRNA; assay: Inhibition of hIL-6 mRNA transcription in U937 cells; type: cell-based, human; set-up: key: Active: Compounds with an IC50 value less than 30 μM were deemed to be active.; Not Active: Compounds with an IC50 value less than 30 μM were deemed to be active; conditions: LPS stimulation, active = IC50 <30 μM
Procedure, shortened: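 Readout is one-step real-time PCR of hIL-6 mRNA, normalized to an internal control and given as fold induction versus control. Cells: PMA (60 ng/mL, 3 days)-differentiated U937 macrophages, compound added 1 h before 1 ug/mL LPS, harvested after 3 h at 37° C.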

[4] = molecular target: T2, second bromodomain of Brd2 (BRD2(2)) (Homo sapiens, UniProt P25440); assay: Inhibition of tetra-acetylated histone H4 binding to Brd2 bromodomain 2 (TR-FRET); set-up: key: Active: Compounds with an IC50 value less than 30 μM were deemed to be active.; Not Active: Compounds with an IC50 value less than 30 μM were deemed to be active; conditions: tetra-acetylated histone H4 peptide, active = IC50 <30 μM
T2 construct: made in house; host or cells: E. coli BL21 (DE3)
Procedure, shortened: as §1

[5] = tested on: c-myc; assay: Inhibition of c-myc expression in MV4-11 cells (mRNA, real-time PCR); type: cell-based; set-up: key: Active: Compounds with an IC50 value less than 30 μM were deemed to be active.; Not Active: Compounds with an IC50 value less than 30 μM were deemed to be active; conditions: Human AML MV4-11 cells, 3 h incubation
Procedure, shortened: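 Duplex RT-qPCR of c-myc against cyclophilin cDNA gave IC50 from a dose–response curve. Input was isolated mRNA from 2.5×10^4 MV4-11 cells after 3 h exposure at 37 °C to compound or 0.1% DMSO vehicle.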

[6] = tested on: human AML MV-4-11 (CRL-9591) cells; assay: Inhibition of cell proliferation in MV4-11 cells; type: cell-based; set-up: key: Active: Compounds with an IC50 value less than 30 μM were deemed to be active.; Not Active: Compounds with an IC50 value less than 30 μM were deemed to be active; conditions: human AML MV-4-11 cells, 72 h; active = IC50 <30 μM
Procedure, shortened: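 IC50 values come from blank-corrected proliferation relative to DMSO controls, read as 490 nm absorbance 3–4 h after CellTiter Aqueous One addition. Before that, cells seeded at 5×10^4/well were exposed for 72 h (37° C, 5% CO2) to triplicate two-fold compound dilutions spanning 30–0.2 μM.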

T2 sequence (P25440 344-453 limits assumed): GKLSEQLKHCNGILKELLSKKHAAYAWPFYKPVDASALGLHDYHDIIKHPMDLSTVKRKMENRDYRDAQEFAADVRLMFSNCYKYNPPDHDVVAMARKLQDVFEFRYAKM

Row | SMILES | FRET activity (IC50 <30 μM) BRD4(1) [1] | ApoA-1 activity (EC170 <30 μM) [2] | IL-6 activity (IC50 <30 μM) [3] | FRET activity (IC50 <30 μM) BRD2(2) [4] | c-myc activity (IC50 <30 μM) [5] | Cell Proliferation activity (IC50 <30 μM) [6]
1 | Cc1nscc1-c1ccc(=O)n(Cc2ccccc2)c1 [Example 160, 1-Benzyl-5-(3-methylisothiazol-4-yl)pyridin-2(1H)-one] | Active | Active | – | – | – | –
2 | Cc1noc(C)c1-c1cc(Nc2cccc(F)c2)c(=O)n(Cc2ccccc2)c1 [Example 157, 1-Benzyl-5-(3,5-dimethylisoxazol-4-yl)-3-((3-fluorophenyl)amino)pyridin-2(1H)-one] | Active | Active | – | – | – | –
3 | C=Cc1ccc(Cn2cc(-c3c(C)noc3C)ccc2=O)cc1 [Example 218, 5-(3,5-Dimethylisoxazol-4-yl)-1-(4-vinylbenzyl)pyridin-2(1H)-one] | Active | Active | Active | – | – | –
4 | Cc1noc(C)c1-c1ccc(=O)n(Cc2ccc(Cl)c(Cl)c2)c1 [Example 155, 1-(3,4-Dichlorobenzyl)-5-(3,5-dimethylisoxazol-4-yl)pyridin-2(1H)-one] | Active | Active | – | – | – | –
5 | Cc1noc(C)c1Nc1cc(-c2c(C)noc2C)cn(Cc2ccccc2)c1=O [Example 217, 1-benzyl-5-(3,5-dimethylisoxazol-4-yl)-3-((3,5-dimethylisoxazol-4-yl)amino)pyridin-2(1H)-one] | Active | Active | Not Active | – | – | –
6 | Cc1onc(CO)c1-c1ccc(=O)n(Cc2ccccc2)c1 [Example 158, 1-Benzyl-5-(3-(hydroxymethyl)-5-methylisoxazol-4-yl)pyridin-2(1H)-one] | Active | Active | – | – | – | –
7 | Cc1noc(C)c1-c1ccc(=O)n(CCc2ccccc2)n1 [Example 1, 6-(3,5-Dimethylisoxazol-4-yl)-2-phenethylpyridazin-3(2H)-one] | Active | – | Not Active | Active | Not Active | Not Active
8 | COc1ccc(-c2nn(Cc3ccccc3)c(=O)c3ccccc23)c(O)c1OC [Example 164, 2-Benzyl-4-(2-hydroxy-3,4-dimethoxyphenyl)phthalazin-1(2H)-one] | Active | – | Not Active | Active | Not Active | Active
9 | Cc1noc(C)c1-c1ccc(=O)n(C(C)c2ccccc2C(F)(F)F)n1 (stereo not shown) [Example 34, 6-(3,5-Dimethylisoxazol-4-yl)-2-(1-(2-(trifluoromethyl)phenyl)ethyl)pyridazin-3(2H)-one] | Active | – | Active | Active | Active | Active
10 | Cc1noc(C)c1-c1cc(Cl)c(=O)n(Cc2ccccc2)c1 [Example 64, 1-Benzyl-3-chloro-5-(3,5-dimethylisoxazol-4-yl)pyridin-2(1H)-one] | Active | – | Active | Active | Active | Active
11 | Cc1noc(C)c1-c1ccc(=O)n(Cc2ccc(Cl)cc2)n1 [Example 25, 2-(4-Chlorobenzyl)-6-(3,5-dimethylisoxazol-4-yl)pyridazin-3(2H)-one] | Active | – | Active | Active | Active | Active
12 | Cc1noc(N)c1-c1ccc(=O)n(Cc2ccccc2)c1 [Example 98, 5-(5-Amino-3-methylisoxazol-4-yl)-1-benzylpyridin-2(1H)-one trifluoroacetic acid] | Active | – | Active | Active | Not Active | Active
13 | COc1cc(-c2ccc(=O)n(Cc3ccc(C(C)(C)C)cc3)n2)cc(OC)c1OC [Example 120, 2-(4-(tert-Butyl)benzyl)-6-(3,4,5-trimethoxyphenyl)pyridazin-3(2H)-one] | Active | – | Not Active | Active | Not Active | Active
14 | COc1cccc(Cn2cc(-c3c(C)noc3C)ccc2=O)c1 [Example 78, 5-(3,5-Dimethylisoxazol-4-yl)-1-(3-methoxybenzyl)pyridin-2(1H)-one] | Active | – | Active | Active | Active | Active
15 | Cc1onc(N)c1-c1ccc(=O)n(Cc2ccccc2)c1 [Example 151, 5-(3-Amino-5-methylisoxazol-4-yl)-1-benzylpyridin-2(1H)-one] | Active | – | Active | Active | Not Active | Active
16 | Cc1noc(C)c1-c1ccc(=O)n(Cc2ccsc2)n1 [Example 107, 6-(3,5-Dimethylisoxazol-4-yl)-2-(thiophen-3-ylmethyl)pyridazin-3(2H)-one] | Active | – | Active | Active | Not Active | Active
